Results from patent US20070219185A1, “Preventive or therapeutic agent for neuropathic pain” (priority 2004, published 2007).

Key:
[1] = system: STZ-induced diabetic rats; assay: Nociceptive threshold in STZ-induced diabetic rats (single administration), Randall-Selitto method; type: in vivo, rat; settings: for Nociceptive threshold before administration / Nociceptive threshold after administration: mean±SE; for Nociceptive threshold after administration: one hour after administration
Description: Measurement of the Nociceptive Threshold in STZ-Induced Diabetic Rats (Single Administration)
STZ (50 mg/kg) was administered intravenously to male SD stain rats to induce diabetes mellitus. Test articles were administered 14 days later (10 rats in each group). Test articles used were clonidine as the α2 AR stimulant, terbutaline as the β2 AR stimulant and the above-mentioned Compound 1. Normal and Control groups received the medium (0.5% methylcellulose). Before and one hour after administration of test articles, the nociceptive threshold against pressure stimulation given to the right hind-paw of rats was measured by Randall-Selitto method, and compared with that in Control group.

[2] = system: STZ-induced diabetic rats; assay: Nociceptive threshold in STZ-induced diabetic rats (repeated administration), Randall-Selitto method; type: in vivo, rat; settings: for Nociceptive threshold before administration / Nociceptive threshold after administration / nociceptive threshold following repeated administration for 14 days: Example 2; for Nociceptive threshold before administration / Nociceptive threshold after administration: 14 times, mean±SE; for Nociceptive threshold before administration: before the final administration; for Nociceptive threshold after administration: one hour after the final administration; for nociceptive threshold following repeated administration for 14 days: H group (clonidine 1.0 mg/kg subcutaneous; terbutaline 10 mg/kg oral), versus Control group; for nociceptive threshold after 14-day repeated, sole administration: Example 3, FIG. 1, L and M groups (clonidine 0.1, 0.3 mg/kg subcutaneous; terbutaline 1, 3 mg/kg oral)
Description: Measurement of the Nociceptive Threshold in STZ-Induced Diabetic Rats (Repeated Administration)
STZ (50 mg/kg) was administered intravenously to male SD stain rats to induce diabetes mellitus. […] Normal and Control groups received the medium (0.5% methylcellulose). Before the final administration (before administration of test articles) and after the final administration (one hour after the administration), the nociceptive threshold against pressure stimulation given to the right hind-paw of rats was measured by Randall-Selitto method, and compared with that in Control group.

β2 AR = molecular target: T1, β2 AR (Rattus norvegicus, UniProt P10608); assay: Receptor binding test of β2 AR; settings: 3H-dihydroalprenolol; fascia of rat gravid uterus; read-out: binding affinity (IC50 value) to β2 AR
T1 construct: the fascia of gravid uterus (β2 AR) as the sources of receptors; from tissue; host or cells: rat gravid uterus (fascia/membrane specimen)
T1 sequence (P10608 whole entry): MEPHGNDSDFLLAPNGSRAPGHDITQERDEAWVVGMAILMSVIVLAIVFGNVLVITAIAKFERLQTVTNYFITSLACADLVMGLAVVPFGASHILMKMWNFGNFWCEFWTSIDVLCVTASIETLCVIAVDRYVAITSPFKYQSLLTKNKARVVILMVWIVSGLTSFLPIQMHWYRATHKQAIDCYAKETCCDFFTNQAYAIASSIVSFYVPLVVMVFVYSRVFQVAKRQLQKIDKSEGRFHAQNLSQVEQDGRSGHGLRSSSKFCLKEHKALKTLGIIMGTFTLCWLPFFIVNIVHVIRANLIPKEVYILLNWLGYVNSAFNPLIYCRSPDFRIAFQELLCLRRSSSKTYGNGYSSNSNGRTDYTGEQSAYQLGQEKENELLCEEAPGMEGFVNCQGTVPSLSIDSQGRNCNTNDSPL
Description: Receptor Binding Tests of α2 AR and β2 AR
Receptor binding tests were conducted in ^3H-p-aminoclonidine and ^3H-dihydroalprenolol (3 rats in each) using specimens of the membrane of rat cerebral cortex (α2 AR) and the fascia of gravid uterus (β2 AR) as the sources of receptors. The binding ability of Compound 1 to α2 AR and β2 AR were obtained by calculating binding inhibition rates (IC50 values) of Compound 1 against the binding abilities of the above-mentioned tracers with both receptors.

Seltzer model rats [3] = assay: Nociceptive threshold in Seltzer model rats (repeated administration), Randall-Selitto method; type: in vivo, rat; settings: Example 7, FIG. 4; 10 mg/kg oral, 14-day repeated
Description: Measurement of the Nociceptive Threshold in Seltzer Model Rats (Repeated Administration)
Thirty, 7-week old male SD rats were anesthetized with pentobarbital (Nembutal injection®), and the right sciatic nerve was exposed. In the nerve ligation group (20 rats), half of the dorsal portion of the nerve was ligated using 6-0 silk thread. In the normal group (10 rats), the sciatic nerve was only exposed. Beginning the following day of the model creation, test articles were administered orally once a day, repeatedly, 14 times in total. Normal and Control groups received the medium (0.5% methyl-cellulose) and Nerve ligation group was given orally test articles. One hour after the final administration, the nociceptive threshold against pressure stimulation given to the right hind-paw of rats was measured by Randall-Selitto method, and compared with Control group.

Seltzer model rats [4] = assay: Nociceptive threshold in Seltzer model rats (single administration), Randall-Selitto method; type: in vivo, rat; settings: Example 6, FIG. 3, 10 mg/kg oral, one hour after administration
Source text: Measurement of the Nociceptive Threshold in Seltzer Model Rats (Single Administration)
Ten, 9-week old male SD rats were anesthetized with pentobarbital (Nembutal injection®), and the right sciatic nerve was exposed. In Nerve ligation group (7 rats), half of the dorsal portion of the nerve was ligated using 5-0 nylon thread. In Normal group (3 rats), the sciatic nerve was only exposed. Three weeks after the model was created, the control group received the medium (0.5% methylcellulose) and Nerve ligation group was given orally test articles. Before the administration (before administration of test articles) and after administration (one hour after the administration of test articles), the nociceptive threshold against pressure stimulation given to the right hind-paw of rats was measured by Randall-Selitto method. Results before and after administration were compared.

[5] = Example 1, H group 1.0 mg/kg subcutaneous
[6] = Example 1, L group 0.1 mg/kg subcutaneous
[7] = H group 1.0 mg/kg subcutaneous once a day
[8] = L group 0.1 mg/kg subcutaneous once a day
[9] = M group 0.3 mg/kg subcutaneous once a day
[10] = Example 1, H group 10.0 mg/kg oral
[11] = Example 1, L group 1.0 mg/kg oral
[12] = H group 10.0 mg/kg oral once a day
[13] = L group 1.0 mg/kg oral once a day
[14] = M group 3.0 mg/kg oral once a day

Clc1cccc(Cl)c1N=C1NCCN1 [Clonidine, clonidine]
analgesic effect compared with Control group ([1]; Example 1, H group 1.0 mg/kg subcutaneous, after administration): apparent analgesic effect | Nociceptive threshold before administration [1, 5]: 115.4 ± 8.9 g | Nociceptive threshold after administration [1, 5]: 325.8 ± 29.8 g | Nociceptive threshold before administration [1, 6]: 122.8 ± 7.5 g | Nociceptive threshold after administration [1, 6]: 155.8 ± 16.3 g | Nociceptive threshold before administration [2, 7]: 97.2 ± 14.5 g | Nociceptive threshold after administration [2, 7]: 254.4 ± 33.3 g | nociceptive threshold following repeated administration for 14 days [2]: increased significantly | Nociceptive threshold before administration [2, 8]: 129.2 ± 15.9 g | Nociceptive threshold after administration [2, 8]: 180.6 ± 24.4 g | Nociceptive threshold before administration [2, 9]: 104.2 ± 13.8 g | Nociceptive threshold after administration [2, 9]: 115.2 ± 18.2 g | nociceptive threshold after 14-day repeated, sole administration [2]: in neither L groups or M groups of either test articles, the nociceptive threshold increased

CN(C)C(=O)COc1ccc2c(c1)C[C@@H](NC[C@H](O)c1ccc(O)c(CO)c1)CC2 [Compound 1, (-)-bis{2-[(2S)-2-[{(2R)-2-hydroxy-2-(4-hydroxy-3-hydroxymethyl-phenyl)ethyl}amino]-1,2,3,4-tetrahydronaphthalen-7-yloxy]-N,N-dimethylacetamide}sulfate dihydrate]
IC50 (β2 AR): 14 nM | Nociceptive threshold before administration ([1]; Example 4, 0.3 mg/kg oral): 71.8 ± 5.3 g | Nociceptive threshold after administration ([1]; Example 4, 0.3 mg/kg oral): 117.6 ± 10.7 g | Nociceptive threshold before administration ([1]; Example 4, 1.0 mg/kg oral): 95.0 ± 5.1 g | Nociceptive threshold after administration ([1]; Example 4, 1.0 mg/kg oral): 131.0 ± 12.3 g | analgesic effects ([1]; Example 4, 3 mg/kg and 10 mg/kg oral): apparent analgesic effects | Nociceptive threshold before administration ([1]; Example 4, 3.0 mg/kg oral): 92.0 ± 13.3 g | Nociceptive threshold after administration ([1]; Example 4, 3.0 mg/kg oral): 174.6 ± 15.4 g | Nociceptive threshold before administration ([1]; Example 4, 10.0 mg/kg oral): 89.0 ± 10.2 g | Nociceptive threshold after administration ([1]; Example 4, 10.0 mg/kg oral): 253.4 ± 28.3 g | nociceptive thresholds after administration, dose dependence ([1]; Example 4, 0.3, 1, 3 and 10 mg/kg oral): increased dose-dependently | nociceptive threshold of the right hind-paw in comparison with that of Control group (Seltzer model rats [3]): improved significantly | nociceptive thresholds after administration, dose dependence ([2]; Example 5, FIG. 2, 0.3, 1, 3 and 10 mg/kg oral, 14-day repeated): clearly increased dose-dependently beginning at dosage of 0.3 mg/kg | nociceptive threshold compared with Normal group ([2]; Example 5, FIG. 2, oral, 14-day repeated): improved the nociceptive threshold to the same level as in Normal group | effect of repeated administration compared with single administration ([2]; Example 5, oral, 14-day repeated versus single): stronger effect increasing the nociceptive threshold than single administration | nociceptive threshold of Nerve ligation group in comparison with that before administration (Seltzer model rats [4]): improved significantly

CC(C)(C)NCC(O)c1cc(O)cc(O)c1 (centres unmarked) [Terbutaline, terbutaline]
Nociceptive threshold before administration [1, 10]: 122.6 ± 14.5 g | Nociceptive threshold after administration [1, 10]: 146.8 ± 20.7 g | Nociceptive threshold before administration [1, 11]: 134.2 ± 6.3 g | Nociceptive threshold after administration [1, 11]: 152.8 ± 12.7 g | Nociceptive threshold before administration [2, 12]: 228.2 ± 11.1 g | Nociceptive threshold after administration [2, 12]: 229.0 ± 14.8 g | nociceptive threshold following repeated administration for 14 days [2]: increased significantly | Nociceptive threshold before administration [2, 13]: 113.8 ± 11.9 g | Nociceptive threshold after administration [2, 13]: 115.2 ± 12.6 g | Nociceptive threshold before administration [2, 14]: 155.4 ± 32.0 g | Nociceptive threshold after administration [2, 14]: 167.8 ± 32.3 g | nociceptive threshold after 14-day repeated, sole administration [2]: in neither L groups or M groups of either test articles, the nociceptive threshold increased
